Experimental findings from the NIST ThermoML archive (doi:10.1021/je201193d) are described below.

Numbers after ± are expanded uncertainties.

For the data set the following is noted: Crystal; visual observation.

Consider `CCC(=O)O` [propanoic acid], for which the Normal melting temperature was -20.60 ± 0.39 °C.

Consider `C=CC(=O)O` [propenoic acid], for which the Normal melting temperature was 12.8 ± 0.39 °C.
